Paper PMC8359946, “Expanding the Substrate Scope of Nitrating Cytochrome P450 TxtE by Active Site Engineering of a Reductase Fusion” (Chembiochem, 2021)

How the values were obtained:
[1] = target: T1, TxtE (His6-TxtE-BM3R fusion) (Streptomyces scabiei, UniProt C9ZDC6); assay: UV-Vis difference spectroscopy titration; purified-enzyme nitration assay; format: binding
T1 construct: His6-TxtE-BM3R fusion with the full length heme-reductase linker (27 aa) from CYP102A1

[2] = target: T2, TxtE (His6-TxtE-BM3R fusion) (Streptomyces scabiei, UniProt C9ZDC6, R59C); assay: UV-Vis difference spectrum (type II); LC-MS nitration assay with purified enzyme; format: binding
T2 construct: His6-TxtE-BM3R(R59C)

| Compound | Kd [1] [µM] | UV-Vis difference spectrum (type II); LC-MS nitration assay with purified enzyme [2] |
| --- | --- | --- |
| N[C@@H](Cc1c[nH]c2ccccc12)C(=O)O [L-tryptophan] | 84 ± 2 |  |
| NCCc1c[nH]c2ccccc12 [compound 1, tryptamine] |  | a similar spectrum is observed for binding of tryptamine to His6‐TxtE‐BMR3(R59C) |
